Experimental data as given in patent US7223733B2, “Modulation of TRIP-Br function and method of treating proliferative disorders” (National University of Singapore, priority 2004, dated 2007).
[invdT] = inverted (3'-3') thymidine

How the values were obtained:
Assay type in all cases: cell-based, human
hTRIP-Br1 mRNA = test: Semi-quantitative RT-PCR of intact hTRIP-Br1 transcripts in WI-38 cells; conditions: WI-38, 0.1 μM, 16 h post-stimulation with 10% FBS
Experimental: (§1) DNA enzyme transfection. WI-38 cells were rendered quiescent by cultivation in serum-free medium for 72 h before being transfected with DNA enzyme (0.1 μM) using Superfect as reported previously (Santiago, F. S., et al. Nat Med 5, 1264-1269 (1999)) in accordance to manufacturer's recommendations (Qiagen).
(§2) Semi-quantitative RT-PCR. Following various treatments, WI-38 cells in 6-well culture dish were subjected to total RNA extraction using the TRIZOL® Reagent (Life Technologies). Total RNA (4 μg) was reversed transcribed using oligo-dT and M-MLV reverse transcriptase in a total reaction volume of 20 μl. Polymerase Chain Reactions (PCR) were carried out on 3 μl cDNA sample in the presence of […] deoxyribonucleotide triphosphates (dNTPs) and 40 μM of specific primer pairs in a total reaction volume of 50 μl. […] Post-PCR samples were analyzed by agarose gel electrophoresis.
(§3) FIG. 11: (A) hTRIP-Br1 and hTRIP-Br2 expression is serum-inducible. […] At 24 h post-serum re-stimulation, semi-quantitative RT-PCR analysis was performed on total RNA to assess hTRIP-Br1 and hTRIP-Br2 expression. β-actin was included as an internal control. […] Semi-quantitative RT-PCR analysis was performed on total RNA to assess hTRIP-Br1 and hTRIP-Br2 expression. β-actin was included as an internal control. […]

[1] = tested on: cyclin E, Cdk4, cyclin D1 and p27^KIP1; test: Western blot of cyclin E, Cdk4, cyclin D1 and p27KIP1 in WI-38 cells; conditions: WI-38, 20 h
Experimental: Western blotting analysis. Cells in 6-well culture dish were washed in cold PBS and lysed in sample buffer (50 mM Tris-Cl, pH 6.8, 2% SDS, 10% glycerol, 0.1% bromophenol blue and 100 mM DTT). Whole cell lysates were heated at 100° C. for 10 minutes prior to electrophoresis. Separation of complex protein mixtures was achieved using a discontinuous polyacrylamide gel electrophoresis system consisting of a stacking gel and a 10% separating gel. Electrophoresis was performed with 1× running buffer (25 mM Tris pH 8.6, 0.19 M glycine, 0.1% SDS) in a mini vertical electrophoresis apparatus (BIO-RAD) at constant voltage (80 V). Separated proteins were transferred to nitrocellulose membrane (Immobilon™-P, Millipore) by electro-blotting (30V overnight at 4° C.) in transfer buffer (50 mM Tris, 384 mM glycine, 20% methanol, 0.01% SDS). Following blocking (1×PBS, 0.5% Tween 20, 4% [w/v] non-fat milk), target proteins were detected using a 1:2,500 dilution of specific primary antibodies. Anti-mouse or anti-rabbit IgG antibodies conjugated with horseradish peroxidase (Santa Cruz) were used to visualize immunoreactive proteins at 1:2,500 dilutions using enhanced chemiluminescence (Pierce).
FIG. 14: (A) E-Br1 or E-Br2 attenuates mitogen-stimulated CCNE gene induction. Sub-confluent WI-38 cells were serum-starved for 72 h. Following DNA enzyme transfection, the cultures were re-stimulated with serum and allowed to proliferate. After 20 h, cells were harvested and total RNA extracted for semi-quantitative RT-PCR to assess CCNE expression. β-actin was included as an internal control. PCR products were resolved by agarose gel electrophoresis and ethidium bromide-stained DNA bands were visualized under UV. […] Sub-confluent WI-38 cells were serum-starved for 72 h. Following transfection with DNA enzyme, the cultures were allowed to proliferate. After 20 h, cells were harvested for western blot (WB) analysis of cyclin E, Cdk4, cyclin D1 and p27^KIP1 expression. Coomassie-stained protein was included as control for normalization.

hTRIP-Br2 mRNA = test: Semi-quantitative RT-PCR of intact hTRIP-Br2 transcripts in WI-38 cells; conditions: WI-38, 0.1 μM, 16 h post-stimulation with 10% FBS
Experimental: as §1, §2, §3

Row | Substance | serum-inducible steady-state hTRIP-Br1 mRNA level (hTRIP-Br1 mRNA) | expression of Cdk4, cyclin D1 and p27^KIP1 [1] | mitogen-induced cyclin E protein expression [1] | serum-inducible steady-state hTRIP-Br2 mRNA level (hTRIP-Br2 mRNA)
1 | 5′-T TGCTCAGCAGGCTAGCTACAACGACTTGCTCA-3′ (DNA TTGCTCAGCAGGCTAGCTACAACGACTTGCTCA; DNA, 3' [invdT], backbone not given here) [E-Br1] | efficiently down-regulated | without altering the expression | prevents mitogen-induced cyclin E expression | 
2 | 5′-T TACCCAACAGGCTAGCTACAACGAATATCACA-3′ (DNA TTACCCAACAGGCTAGCTACAACGAATATCACA; DNA, 3' [invdT], backbone not given here) [E-Br2] |  | without altering the expression | prevents mitogen-induced cyclin E expression | efficiently down-regulated
